The values below come from patent US9809542B2, “Spiroheterocyclically substituted tetramic acid derivatives” (BAYER INTELLECTUAL PROPERTY GMBH, priority 2010, dated 2017).

The test system of series [1] is Lolium multiflorum. Briefly: Herbicidal pre-emergence action. The series is classed as in vivo. To be noted: pre-emergence method, 320 g of a.i./ha; about 3 weeks. An excerpt: (§1) 1. Herbicidal Pre-Emergence Action
(§2) • Seeds of monocotyledonous and dicotyledonous weed and crop plants are placed in sandy loam in wood fibre pots and covered with soil. The test compounds, formulated in the form of wettable powders (WP), are then, as aqueous suspension with a water application rate of 600 l/ha (converted), with 0.2% of wetting agent added, applied to the surface of the covering soil in various dosages. • After the treatment, the pots are placed in a greenhouse and kept under good growth conditions for the test plants. The visual assessment of the emergence damage on the test plants is carried out after a trial period of about 3 weeks by comparison with untreated controls (herbicidal effect in %: 100% effect=the plants have died, 0% effect=like control plants). • In addition to the compounds mentioned above, the following compounds, applied by the pre-emergence method at 320 g of a.i./ha, show an efficacy of 90% against Lolium multiflorum and Setaria viridis: I-1-a-1 • In addition to the compounds mentioned above, the following compounds, applied by the pre-emergence method at 320 g of a.i./ha, show an efficacy of 100% against Echinocloa crus-galli: I-a-2, I-b-1, I-b-2, I-c-2 2. Herbicidal Post-Emergence Action • Seeds of monocotyledonous and dicotyledonous weed and crop plants are placed in sandy loam in wood fibre pots, covered with soil and cultivated in a greenhouse under good growth conditions. 2-3 weeks after sowing, the test plants are treated at the one-leaf stage. The test compounds, formulated as wettable powders (WP), are, in various dosages at a water application rate of 600 l/ha (converted), with 0.2% of wetting agent added, sprayed onto the green parts of the plants. After the test plants have been kept in the greenhouse under optimum growth conditions for about 3 weeks, the effect of the preparations is rated visually in comparison to untreated controls (herbicidal effect in %: 100% effect=the plants have died, 0% effect=like control plants). • In addition to the compounds mentioned above, the following compounds, applied by the post-emergence method at 80 g/ha, show an efficacy of 90% against Echinocloa crus-galli and Lolium multiflorum: I-a-3, I-a-4, I-a-5.

Series [2] concerns Setaria viridis. Briefly: Herbicidal pre-emergence action. The series is classed as in vivo. The settings on record: pre-emergence method, 320 g of a.i./ha; about 3 weeks.
Text: as §1, §2

Series [3] is described as follows: Penetration of active compounds through enzymatically isolated cuticles of apple tree leaves. The series is classed as in vitro ADME, apple trees of the cultivar Golden Delicious. The settings on record: 300 ppm in DMF/emulsifier W 7:1 (w/w), 20° C., 60% rh; for Penetration after 24 h, EC + RME (1 g/l) + AS (1 g/l): + RME 1 g/l + ammonium sulphate 1 g/l; for Penetration after 24 h, EC + RME (1 g/l) + DAHP (1 g/l): + RME 1 g/l + diammonium hydrogenphosphate 1 g/l; for Penetration after 24 h, EC + AS (1 g/l): + ammonium sulphate 1 g/l; for Penetration after 24 h, EC + DAHP (1 g/l): + diammonium hydrogenphosphate 1 g/l; for Penetration after 24 h, EC + RME (1 g/l): + rapeseed oil methyl ester 1 g/l; for Penetration after 24 h, EC: EC alone. How it is done:
Example 8: Increase of Penetration into the Plant by Ammonium or Phosphonium Salts and Synergistic Increase of Penetration into the Plant by Ammonium Salts in Combination with Penetrants
In this test, the penetration of active compounds through enzymatically isolated cuticles of apple tree leaves is measured.
Use is made of leaves which, fully developed, are cut from apple trees of the cultivar Golden Delicious. The cuticles are isolated by • initially filling leaf discs punched out and stained with dye on the underside by vacuum infiltration with a pectinase solution (0.2 to 2% strength) buffered to pH between 3 and 4, • then adding sodium azide and • allowing the leaf discs treated in this manner to stand until the original leaf structure has dissolved and the non-cellular cuticles have detached.
Only the cuticles, free from hairs and stoma, of the upper sides of the leaves are then used further. They are washed repeatedly alternately with water and a buffer solution of pH 7. The clean cuticles obtained are then mounted on Teflon plates and smoothed and dried with a gentle stream of air.
In the next step, the cuticle membranes obtained in this manner are placed into stainless steel diffusion cells (=transport chambers) for membrane transport studies. To this end, the cuticles are placed with a pincette into the centre of the edges, coated with silicone fat, of the diffusion cells and closed with a ring, which is also treated with fat. The arrangement is chosen such that the morphological outside of the cuticles is facing outwards, i.e. is exposed to air, whereas the original inside is facing the interior of the diffusion cell.
The diffusion cells are filled with a 30% strength ethylene glycol/water solution. To determine the penetration, in each case 10 μl of the spray liquor of the composition below are applied to the outside of the cuticles. The spray liquor is prepared using local tap water of medium hardness.
After the application of the spray liquors, the water is allowed to evaporate and the chambers are inverted and placed into thermostated tubs in which the temperature and atmospheric humidity over the cuticles can be adjusted using a gentle stream of air onto the cuticles with the spray coating (20° C., 60% rh). At regular intervals, an autosampler takes aliquots and the active compound content is determined by HPLC.
The stated numbers are average values of 8 to 10 measurements. It is clearly evident that even ammonium sulphate on its own improves the penetration markedly, and that, together with RME, a superadditive (synergistic) effect is present.

The subject of series [4] is greenhouse red spidermite (Tetranychus urticae). Briefly: Tetranychus test OP-resistant (TETRUR spray treatment). It counts as in vivo. The settings on record: application rate 100 g/ha, bean leaf discs, after 6 days. How it is done:
Tetranychus Test OP-Resistant (TETRUR Spray Treatment)
Solvents: 78.0 parts by weight of acetone
• 1.5 parts by weight of dimethylformamide Emulsifier: 0.5 part by weight of alkylaryl polyglycol ether
To produce a suitable preparation of active compound, 1 part by weight of active compound is mixed with the stated amounts of solvents and emulsifier, and the concentrate is diluted with emulsifier-containing water to the desired concentration. Discs of bean leaves (Phaseolus vulgaris) which are infested by all stages of the greenhouse red spidermite (Tetranychus urticae) are sprayed with an active compound preparation of the desired concentration.
After 6 days, the effect in % is determined. 100% means that all spidermites have been killed; 0% means that none of the spidermites have been killed.

Series [5] has as its system Echinocloa crus-galli. Briefly: Herbicidal pre-emergence action. To be noted: pre-emergence method, 320 g of a.i./ha; about 3 weeks. It counts as in vivo.
Text: as §1, §2

For the compound `CON1CCC2(CC1)NC(=O)C(c1c(C)ccc(-c3ccc(F)cc3)c1C)=C2O` [I-a-1], in series [1], the “efficacy (herbicidal effect in %)” value amounted to 90%. For the same compound, the “efficacy (herbicidal effect in %)” value in series [2] is reported as 90%. Also, in series [3], the “Penetration after 24 h, EC + RME (1 g/l) + AS (1 g/l)” value turned out to be 19%; the “Penetration after 24 h, EC + RME (1 g/l) + DAHP (1 g/l)” value was 15%; the “Penetration after 24 h, EC + AS (1 g/l)” value is listed as 3.8%; the “Penetration after 24 h, EC + DAHP (1 g/l)” value is reported as 2.3%. Also, in series [3], the “Penetration after 24 h, EC + RME (1 g/l)” value was 0.8% and the “Penetration after 24 h, EC” value is below 0.2%.
Turning to `CCON1CCC2(CC1)NC(=O)C(c1c(C)ccc(-c3ccc(F)cc3)c1C)=C2O` [I-a-2], in series [4], the “efficacy (effect in %, spidermites killed)” value is given as 100%. Further, the “efficacy (herbicidal effect in %)” value in series [5] is reported as 100%. For the same compound, in series [3], the “Penetration after 24 h, EC + RME (1 g/l) + AS (1 g/l)” value worked out at 17%; the “Penetration after 24 h, EC + RME (1 g/l) + DAHP (1 g/l)” value was determined as 21%; the “Penetration after 24 h, EC + AS (1 g/l)” value is given as 3.8%; the “Penetration after 24 h, EC + DAHP (1 g/l)” value worked out at 3.9%. In series [3], the “Penetration after 24 h, EC + RME (1 g/l)” value came to 1.7% and the “Penetration after 24 h, EC” value is 1.4%.
